Measurements from US20060069132A1, “Azolecarboxamide herbicides” (priority 2004, published 2006).

How the values were obtained:
barnyardgrass [1] = assay: Test B pre-/postemergence herbicide test; format: in vivo, Echinochloa crus-galli; conditions: for Barnyardgrass plant response rating: postemergence, scale 0 (no effect) to 100 (complete control)
Procedure, shortened: (§1)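 Species tested were Echinochloa crus-galli, Ipomoea coccinea, Xanthium strumarium and Oryza sativa, treated both before emergence and at the 1- to 4-leaf stage; rice and barnyardgrass were also tested under flooding at 2 leaves. Greenhouse incubation lasted 13–15 days before visual 0–100 scoring.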

Surinam grass = assay: Test B pre-/postemergence herbicide test; format: in vivo, Urochloa decumbens; conditions: for Surinam Grass plant response rating: postemergence
Procedure, shortened: (§2)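 Response was scored visually 13 to 15 days after treatment against untreated greenhouse controls, 0 meaning no effect and 100 complete control. Formulations (solvent mixture plus surfactant) went onto soil after planting, onto foliage of 1- to 4-leaf plants, and onto 2-leaf plants in a flooded paddy set including rice and barnyardgrass.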

cocklebur = assay: Test B pre-/postemergence herbicide test; format: in vivo, Xanthium strumarium; conditions: for Cocklebur plant response rating: postemergence, scale 0 (no effect) to 100 (complete control)
Procedure, shortened: as §1

corn = assay: Test B pre-/postemergence herbicide test; format: in vivo, Zea mays; conditions: for Corn plant response rating: postemergence
Procedure, shortened: as §2

large crabgrass = assay: Test B pre-/postemergence herbicide test; format: in vivo, Digitaria sanguinalis; conditions: for Crabgrass, Large plant response rating: postemergence
Procedure, shortened: as §2

giant foxtail = assay: Test B pre-/postemergence herbicide test; format: in vivo, Setaria faberi; conditions: for Foxtail, Giant plant response rating: postemergence
Procedure, shortened: as §2

lambsquarters = assay: Test B pre-/postemergence herbicide test; format: in vivo, Chenopodium album; conditions: for Lambsquarters plant response rating: postemergence
Procedure, shortened: as §2

morningglory = assay: Test B pre-/postemergence herbicide test; format: in vivo, Ipomoea coccinea; conditions: for Morningglory plant response rating: postemergence
Procedure, shortened: as §1

pigweed = assay: Test B pre-/postemergence herbicide test; format: in vivo, Amaranthus retroflexus; conditions: for Pigweed plant response rating: postemergence
Procedure, shortened: as §2

rice [2] = assay: Test B pre-/postemergence herbicide test; format: in vivo, Oryza sativa; conditions: 0 = no effect, 100 = complete control, preemergence
Procedure, shortened: as §2

velvetleaf = assay: Test B pre-/postemergence herbicide test; format: in vivo, Abutilon theophrasti; conditions: for Velvetleaf plant response rating: postemergence
Procedure, shortened: as §2

blackgrass = assay: Test B postemergence herbicide test; format: in vivo, Alopecurus myosuroides; conditions: postemergence, visual rating, scale 0 (no effect) to 100 (complete control)
Procedure, shortened: (§3)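 Plants grow to 1- to 4-leaf stage (2–18 cm) for postemergence spraying, or to 2-leaf stage for the paddy test. Formulated compound is applied. Greenhouse holding lasts 13–15 days. Response is scored visually relative to controls, 0 no effect to 100 complete control; a dash means no result.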

wheat = assay: Test B postemergence herbicide test; format: in vivo, Triticum aestivum; set-up: key to Wheat plant response rating: 0 = no effect, 100 = complete control; conditions: postemergence
Procedure, shortened: (§4)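 Visual ratings, 0 (no effect) to 100 (complete control), made versus controls after 13–15 d greenhouse. Paddy plants treated at 2-leaf stage; postemergence plants at 1- to 4-leaf stage, 2–18 cm tall.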

wild oat = assay: Test B postemergence herbicide test; format: in vivo, Avena fatua; conditions: postemergence
Procedure, shortened: as §4

rice [3] = assay: Test B flooded paddy test; format: in vivo, Oryza sativa; conditions: 1000 g ai/ha, scale 0 to 100 (0 no effect, 100 complete control)
Procedure, shortened: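 Postemergence plants were sprayed with formulated test chemicals at 2 to 18 cm height (1- to 4-leaf stage); paddy species were grown to the 2-leaf stage. After 13 to 15 days in a greenhouse, injury was rated visually against untreated controls on a 0–100 scale (0 = no effect, 100 = complete control).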

[4] = tested on: small flower umbrella sedge; assay: Test B flooded paddy test; format: in vivo, Cyperus difformis; conditions: 1000 g ai/ha, scale 0 to 100 (0 no effect, 100 complete control)
Procedure, shortened: as §3

ducksalad [5] = assay: Test B flooded paddy test; format: in vivo, Heteranthera limosa; conditions: 1000 g ai/ha, scale 0 to 100 (0 no effect, 100 complete control)
Procedure, shortened: as §3

barnyardgrass [6] = assay: Test B flooded paddy test; format: in vivo, Echinochloa crus-galli; conditions: 1000 g ai/ha, scale 0 to 100 (0 no effect, 100 complete control)
Procedure, shortened: as §3

rice [7] = assay: Test C flooded paddy test; format: in vivo, Oryza sativa
Procedure, shortened: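 Plants were grown to the 1- to 4-leaf stage (2–18 cm) and then treated postemergence, or grown to the 2-leaf stage for the flooded paddy test. They were held in a greenhouse for 12 to 14 days and then scored by eye against controls, where 0 is no effect and 100 is complete control.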

[8] = tested on: smallflower umbrella sedge; assay: Test C flooded paddy test; format: in vivo, Cyperus difformis
ducksalad [9] = assay: Test C flooded paddy test; format: in vivo, Heteranthera limosa
barnyardgrass [10] = assay: Test C flooded paddy test; format: in vivo, Echinochloa crus-galli
Procedure, shortened: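 Injury scored visually against controls on a 0 (no effect) to 100 (complete control) scale, 12 to 14 days after treatment in greenhouse. Flooded paddy plants treated at 2-leaf stage; postemergence plants at 1- to 4-leaf stage, 2 to 18 cm tall.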

[11] = 125 g ai/ha, 0 = no effect, 100 = complete control, preemergence
[12] = 500 g ai/ha, visual rating, 0 = no effect, 100 = complete control, preemergence
[13] = 125 g ai/ha, visual rating, scale 0 (no effect) to 100 (complete control)
[14] = 500 g ai/ha, scale 0 to 100, 0 is no effect, 100 is complete control
[15] = 62 g ai/ha, scale 0 to 100 (0 no effect, 100 complete control)
[16] = 125 g ai/ha, scale 0 to 100 (0 no effect, 100 complete control)
[17] = 250 g ai/ha, scale of 0 to 100, 0 is no effect, 100 is complete control
[18] = 500 g ai/ha, visual rating after 12 to 14 days, scale 0 to 100 (0 no effect, 100 complete control)

`CCn1nc(C(C)(C)C)cc1C(=O)Nc1cccc(C(=O)N2CCCC2)n1` [Compound 245] was tested, and the “Barnyardgrass plant response rating (0 to 100 scale)” value (barnyardgrass [1]; [11]) was 70, the “Plant response rating, Barnyardgrass” value (barnyardgrass [1]; [12]) was 100 and the “Barnyardgrass plant response rating” value (barnyardgrass [1]; 125 g ai/ha, visual rating) was 40. The “Barnyardgrass plant response rating” value (barnyardgrass [1]; 500 g ai/ha, visual rating) was 70, the “Surinam Grass plant response rating (0 to 100 scale)” value (Surinam grass; [11]) was 40 and the “Plant response rating, Surinam Grass” value (Surinam grass; [12]) was 80. The “Surinam Grass plant response rating” value (Surinam grass; [13]) was 30, the “Surinam Grass plant response rating” value (Surinam grass; [14]) was 60 and the “Cocklebur plant response rating (0 to 100 scale)” value (cocklebur; [11]) was 0. For the same molecule, the “Plant response rating, Cocklebur” value (cocklebur; [12]) was 0, the “Cocklebur plant response rating” value (cocklebur; 125 g ai/ha, visual rating) was 40 and the “Cocklebur plant response rating” value (cocklebur; 500 g ai/ha, visual rating) was 80. The “Corn plant response rating (0 to 100 scale)” value (corn; [11]) was 0, the “Plant response rating, Corn” value (corn; [12]) was 10 and the “Corn plant response rating” value (corn; [13]) was 10. The “Corn plant response rating” value (corn; [14]) was 30, the “Crabgrass, Large plant response rating (0 to 100 scale)” value (large crabgrass; [11]) was 60 and the “Plant response rating, Crabgrass, Large” value (large crabgrass; [12]) was 100. For the same molecule, the “Crabgrass, Large plant response rating” value (large crabgrass; [13]) was 10, the “Crabgrass, Large plant response rating” value (large crabgrass; [14]) was 50 and the “Foxtail, Giant plant response rating (0 to 100 scale)” value (giant foxtail; [11]) was 60. The “Plant response rating, Foxtail, Giant” value (giant foxtail; [12]) was 90, the “Foxtail, Giant plant response rating” value (giant foxtail; [13]) was 30 and the “Foxtail, Giant plant response rating” value (giant foxtail; [14]) was 60. The “Lambsquarters plant response rating (0 to 100 scale)” value (lambsquarters; [11]) was 90, the “Plant response rating, Lambsquarters” value (lambsquarters; [12]) was 100 and the “Lambsquarters plant response rating” value (lambsquarters; [13]) was 80. For the same molecule, the “Lambsquarters plant response rating” value (lambsquarters; [14]) was 90, the “Morningglory plant response rating (0 to 100 scale)” value (morningglory; [11]) was 10 and the “Plant response rating, Morningglory” value (morningglory; [12]) was 20. The “Morningglory plant response rating” value (morningglory; [13]) was 10, the “Morningglory plant response rating” value (morningglory; [14]) was 60 and the “Pigweed plant response rating (0 to 100 scale)” value (pigweed; [11]) was 100. For the same molecule, the “Plant response rating, Pigweed” value (pigweed; [12]) was 100, the “Pigweed plant response rating” value (pigweed; [13]) was 60 and the “Pigweed plant response rating” value (pigweed; [14]) was 80. The “Rice plant response rating (0 to 100 scale)” value (rice [2]; 125 g ai/ha) was 20, the “Plant response rating, Rice” value (rice [2]; 500 g ai/ha, visual rating) was 50 and the “Velvetleaf plant response rating (0 to 100 scale)” value (velvetleaf; [11]) was 40. For the same molecule, the “Plant response rating, Velvetleaf” value (velvetleaf; [12]) was 90, the “Velvetleaf plant response rating” value (velvetleaf; [13]) was 70 and the “Velvetleaf plant response rating” value (velvetleaf; [14]) was 80. For the same molecule, the “Blackgrass plant response rating” value (blackgrass; 125 g ai/ha) was 0, the “Blackgrass plant response rating” value (blackgrass; 500 g ai/ha) was 0 and the “Wheat plant response rating” value (wheat; [13]) was 10. The “Wheat plant response rating” value (wheat; [14]) was 20, the “Oat, Wild plant response rating” value (wild oat; [13]) was 20 and the “Oat, Wild plant response rating” value (wild oat; [14]) was 30. The “Rice plant response rating” value (rice [3]) was 80, the “Sedge, Umbrella plant response rating” value [4] was 50 and the “Ducksalad plant response rating” value (ducksalad [5]) was 80. For the same molecule, the “Barnyardgrass plant response rating” value (barnyardgrass [6]) was 90, the “Rice plant response rating” value (rice [7]; [15]) was 25 and the “Rice plant response rating” value (rice [7]; [16]) was 65. For the same molecule, the “Rice plant response rating” value (rice [7]; [17]) was 70, the “Plant response rating, Rice” value (rice [7]; [18]) was 70 and the “Sedge, Umbrella plant response rating” value [8, 15] was 55. For the same molecule, the “Sedge, Umbrella plant response rating” value [8, 16] was 70, the “Sedge, Umbrella plant response rating” value [8, 17] was 70 and the “Plant response rating, Sedge, Umbrella” value [8, 18] was 70. The “Ducksalad plant response rating” value (ducksalad [9]; [15]) was 60, the “Ducksalad plant response rating” value (ducksalad [9]; [16]) was 75 and the “Ducksalad plant response rating” value (ducksalad [9]; [17]) was 75. For the same molecule, the “Plant response rating, Ducksalad” value (ducksalad [9]; [18]) was 75, the “Barnyardgrass plant response rating” value (barnyardgrass [10]; [15]) was 0 and the “Barnyardgrass plant response rating” value (barnyardgrass [10]; [16]) was 35. For the same molecule, the “Barnyardgrass plant response rating” value (barnyardgrass [10]; [17]) was 45 and the “Plant response rating, Barnyardgrass” value (barnyardgrass [10]; [18]) was 70.
